In patent US20080305186A1, “Method and Composition for the Treatment of Cardiac Hypertrophy” (BOARD OF REGENTS, THE UNIVERSITY OF TEXAS SYSTEM, priority 2007, published 2008):

Test system: cardiac gene expression
Assay: Microarray analysis of cardiac gene expression (GeneChip Mouse Genome 430 2.0)
Type: in vivo, mice
Procedure: Microarray Sample Preparation and Analysis. Animal hearts were rapidly removed, and the atria and right ventricles were cut and immediately plunged into TRIzol Reagent (Life Technologies). Total RNA was isolated following the manufacturer's instructions, purified by phenol-chloroform extraction and then ethanol precipitation, and 20 μg further processed for microarray analysis. Briefly, cDNA synthesis, in vitro transcription, and labeling and fragmentation to produce the oligonucleotide probes were performed as instructed by the GeneChip manufacturer (Affymetrix). The probes were first hybridized to a test array (Affymetrix) and then to the GeneChip Mouse Genome 430 2.0 Array, using the GeneChip Hybridization Oven 640. The chips were washed in a GeneChip Fluidics Station 450 (Affymetrix), and the results were visualized with a GeneChip G7 scanner (Affymetrix). RMA normalization, pairwise comparisons, Student's t test and Benjamini and Hochberg correction were subsequently performed using GeneSifter (VizX Labs, Seattle, Wash.) and Spotfire DecisionSite 8.3 (Spotfire, Inc., Somerville, Mass.).
Effects on Gene Expression Profile. […] One mouse heart was used for each array, and was performed in triplicate, generating a total of 12 arrays. GeneSifter was used to perform RMA normalization, pairwise comparisons of averaged signal intensity values, and Student's t-test with Benjamini and Hochberg correction, and Spotfire was used to perform pairwise comparisons. […] Additionally, genes that were altered between any two N or cardiac hypertrophy samples were removed, as these alterations most likely represented normal variations between mice.

[1] = mouse heart, vs isoproterenol only (CH), CH vs normal −1.7
[2] = mouse heart, vs isoproterenol only (CH), CH vs normal −1.8
[3] = mouse heart, vs isoproterenol only (CH), CH vs normal −1.9
[4] = mouse heart, vs isoproterenol only (CH), CH vs normal −2.0
[5] = mouse heart, vs isoproterenol only (CH), CH vs normal −2.1
[6] = mouse heart, vs isoproterenol only (CH), CH vs normal −2.4
[7] = mouse heart, vs isoproterenol only (CH), CH vs normal −2.5
[8] = mouse heart, vs isoproterenol only (CH), CH vs normal −2.6
[9] = mouse heart, vs isoproterenol only (CH), CH vs normal −2.7
[10] = mouse heart, vs isoproterenol only (CH), CH vs normal −2.8
[11] = mouse heart, vs isoproterenol only (CH), CH vs normal −2.9
[12] = mouse heart, vs isoproterenol only (CH), CH vs normal −3.0
[13] = mouse heart, vs isoproterenol only (CH), CH vs normal −3.2
[14] = mouse heart, vs isoproterenol only (CH), CH vs normal −3.3
[15] = mouse heart, vs isoproterenol only (CH), CH vs normal −3.9

`C[C@H]1c2cccc(O)c2C(=O)C2=C(O)[C@]3(O)C(=O)C(C(N)=O)=C(O)[C@@H](N(C)C)[C@@H]3[C@@H](O)[C@@H]21` [doxycycline] was tested, and the “FC EphrinB3 (Efnb3), BQ175608” value [1] was 1.6 fold, the “FC Nuclear factor IB (Nfib), BB092799” value [1] was 4.0 fold and the “FC Preimplantation protein 4 (Prei4), BB550273” value [1] was 3.6 fold. The “FC Triple futional domain (PTPRF interacting) (Trio), BB794936” value [1] was 3.0 fold, the “FC cDNA, AK020162” value [1] was 1.7 fold and the “FC ATPase, Na+/K+ transporting, alpha 1 polypeptide (Atp1a1), BC025618” value (mouse heart, vs isoproterenol only (CH), CH vs normal −1.7, first BC025618 line) was 2.4 fold. The “FC EST, BB126796” value [2] was 6.5 fold, the “FC EST, BB451134” value [2] was 7.5 fold and the “FC Metastasis suppressor 1 (Mtss1), BB326749” value [2] was 2.0 fold. The “FC Tetratricopeptide repeat domain (Ttc3), BB833716” value [2] was 3.0 fold, the “FC EST, BM941198” value [3] was 3.2 fold and the “FC Jumonji, AT rich interactive domain 1A (Rbp2 like) (Jarid1a), BB376407” value [3] was 2.6 fold. For the same compound, the “FC cDNA, BB006809” value [3] was 2.1 fold, the “FC Guanine nucleotide binding protein, alpha 12 (Gna12), NM_010302” value [4] was 3.0 fold and the “FC Zi finger and BTB domain containing 20 (Zbtb20), BB175650” value [4] was 2.3 fold. The “FC cDNA, BC002200” value [4] was 4.8 fold, the “FC ATPase, Na+/K+ transporting, alpha 1 polypeptide (Atp1a1), BC025618” value (mouse heart, vs isoproterenol only (CH), CH vs normal −2.0, second BC025618 line) was 2.7 fold and the “FC Adenylate kinase 4 (Ak4), NM_009647” value [5] was 2.2 fold. The “FC Beta-tubulin gene M-beta-2 (Tubb2a), M28739” value [5] was 1.7 fold, the “FC C1q and tumor necrosis factor related protein 4 (C1qtnf4), NM_026161” value [5] was 1.5 fold and the “FC Cold inducible RNA binding protein (Cirbp), NM_007705” value [5] was 1.7 fold. For the same compound, the “FC Coronin, actin binding protein 1C (Coro1c), NM_011779” value [5] was 2.1 fold, the “FC Adrenergic receptor, alpha 1b (Adra1b), NM_007416” value (mouse heart, vs isoproterenol only (CH), CH vs normal −2.3) was 1.8 fold and the “FC CXXC finger 5 (Cxxc5), AK015150” value [6] was 2.1 fold. For the same compound, the “FC DNA segment, Chr 9, ERATO Doi 256, expressed, BG066667” value [6] was 3.3 fold, the “FC Insulin degrading enzyme (Ide), AK014703” value [6] was 2.1 fold and the “FC Sno, strawbeny notch homolog 1 (Sno1), BE947961” value [6] was 3.0 fold. For the same compound, the “FC cDNA, BB748887” value [6] was 3.9 fold, the “FC B-cell translocation gene 2, anti-proliferative (Btg2), BG965405” value [7] was 2.2 fold and the “FC cDNA, BC026793” value [7] was 2.5 fold. The “FC Cbp/p300-interacting transactivator, with Glu/Asp-rich carboxy-terminal domain, 4 (Cited4), BC025116” value [8] was 2.0 fold, the “FC Desmoglein 2 (Dsg2), AB072269” value [8] was 3.0 fold and the “FC Heat shock protein, 84 kDa 1 (Hsp90ab1), BI154147” value [8] was 8.7 fold. The “FC Myocyte enhaer factor 2C (Mef2c), AI595932” value [8] was 4.5 fold, the “FC Restin-like 2 (Rsnl2), AK018895” value [8] was 3.8 fold and the “FC Jumonji domain containing 3 (Jmjd3), AW763746” value [9] was 5.0 fold. For the same compound, the “FC cDNA (similar to integrin beta 1 binding protein 3), AK009897” value [9] was 4.0 fold, the “FC ADP-ribosylation factor 2 (Arf2), AV023312” value [10] was 2.5 fold and the “FC Karyopherin (importin) beta 1 (Kpnb1), AW544889” value [10] was 3.6 fold. For the same compound, the “FC PPAR gamma coactivator-1beta protein (Ppargc1b), NM_133249” value [11] was 4.4 fold, the “FC SET and MYND domain containing 1 (Smyd1), NM_009762” value [11] was 2.7 fold and the “FC cDNA, AK013448” value [11] was 2.6 fold. For the same compound, the “FC Dual specificity phosphatase 8 (Dusp8), NM_008748” value [12] was 2.8 fold, the “FC GATA binding protein 4 (Gata4), NM_008092” value [12] was 2.7 fold and the “FC ATP synthase, H+ transporting, mitochondrial F1 complex, alpha subunit, isoform 1 (Atp5a1), C78762” value (mouse heart, vs isoproterenol only (CH), CH vs normal −3.1) was 1.7 fold. For the same compound, the “FC Actin, beta, cytoplasmic (Actb), AW537707” value [13] was 4.9 fold, the “FC Methionine sulfoxide reductase B3 (Msrb3), BB277041” value [13] was 7.2 fold and the “FC Cyclin D1 (Ccnd1), BB538325” value [14] was 2.7 fold. The “FC Thymoma viral proto-oogene 1 (Akt1), M94335” value [14] was 2.1 fold, the “FC cDNA, BB283973” value [14] was 4.1 fold and the “FC cDNA, BB534971” value (mouse heart, vs isoproterenol only (CH), CH vs normal −3.5) was 2.9 fold. The “FC cDNA, BB026304” value (mouse heart, vs isoproterenol only (CH), CH vs normal −3.8) was 4.1 fold, the “FC Connexin 43 (alpha-1 gap jution) (Gja1), M63801” value [15] was 3.6 fold and the “FC Kinesin-like protein (Kif1b), D17577” value [15] was 4.8 fold. For the same compound, the “FC Kv channel-interacting protein 2a (Kcnip2), AF439339” value (mouse heart, vs isoproterenol only (CH), CH vs normal −4.4) was 3.7 fold, the “FC Potassium voltage-gated channel, Isk-related subfamily, member 1 (Kcne1), NM_008424” value (mouse heart, vs isoproterenol only (CH), CH vs normal −4.6) was 1.5 fold and the “FC Tumor rejection antigen gp96 (Tra1); heat shock protein 90 kDa beta (Grp94), member 1 (Hsp90b1), BE995678” value (mouse heart, vs isoproterenol only (CH), CH vs normal −9.4) was 8.0 fold. For the same compound, the “FC Cadherin 13 (Cdh13), AK016527” value (mouse heart, vs isoproterenol only (CH), CH vs normal −10.0) was 9.8 fold, the “FC cDNA (D site albumin promoter binding protein, Dbp), BB550183” value (mouse heart, vs isoproterenol only (CH), CH vs normal −11.5) was 12.0 fold and the “number of the 472 cardiac hypertrophy-specific Combo-altered genes also altered by the drug alone” value (statistical parameters lifted (average fold-changes irrespective of statistical measures)) was 453.
